Results: ChEMBL document CHEMBL1201862, “PubChem BioAssay data set” (2004)
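Cells were grown in 96-well plates and exposed to each compound for 48 hours at five concentrations; endpoints were interpolated linearly between bracketing concentrations, or set to the highest concentration if not reached. GI50 = concentration required for 50% inhibition of growth.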 Activity calls are given as the source filed them. Rule as the data show it: active = GI50 up to about 1.1 µM and inactive = higher.

Columns and labels:
Assay in all cases: DTP human tumour cell line panel, 48 h
K562 = tested on: K562
M14 = tested on: M14
UO-31 = tested on: UO-31
MOLT-4 = tested on: MOLT-4
RXF 393 = tested on: RXF 393
MDA-MB-435 = tested on: MDA-MB-435
LOX IMVI = tested on: LOX IMVI
NCI-H226 = tested on: NCI-H226
U-251 = tested on: U-251
NCI/ADR-RES = tested on: NCI/ADR-RES
RPMI-8226 = tested on: RPMI-8226
PC-3 = tested on: PC-3
OVCAR-3 = tested on: OVCAR-3
COLO 205 = tested on: COLO 205
NCI-H522 = tested on: NCI-H522
EKVX = tested on: EKVX
MDA-N = tested on: MDA-N
SF-295 = tested on: SF-295
MCF7 = tested on: MCF7
HCT-15 = tested on: HCT-15

Question: With `CC(=O)O[C@H]1C[C@]2(C)C(CCC3O[C@@]32C)[C@@]2(CC(c3ccoc3)OC2O)[C@@H]1C` (stereo not given in full) as the molecule, how does the GI50 (K562) read?
Answer: 35.8 µM (inactive)

Question: What about the GI50 (M14) of the same molecule?
Answer: > 100 µM (inactive)

Question: And the GI50 (UO-31)?
Answer: 59.3 µM (inactive)

Question: What about the GI50 (MOLT-4) of the same molecule?
Answer: 29.6 µM (inactive)

Question: What about the GI50 (RXF 393) of the same molecule?
Answer: > 100 µM (inactive)

Question: And the GI50 (MDA-MB-435)?
Answer: 86.7 µM (inactive)

Question: What about the GI50 (LOX IMVI) of the same molecule?
Answer: 78.3 µM (inactive)

Question: What about the GI50 (NCI-H226) of the same molecule?
Answer: > 100 µM (inactive)

Question: What about the GI50 (U-251) of the same molecule?
Answer: > 100 µM (inactive)

Question: What about the GI50 (NCI/ADR-RES) of the same molecule?
Answer: > 100 µM (inactive)

Question: What about the GI50 (RPMI-8226) of the same molecule?
Answer: 28.9 µM (inactive)

Question: What about the GI50 (PC-3) of the same molecule?
Answer: 50.1 µM (inactive)

Question: What about the GI50 (OVCAR-3) of the same molecule?
Answer: 60.7 µM (inactive)

Question: And the GI50 (COLO 205)?
Answer: > 100 µM (inactive)

Question: What about the GI50 (NCI-H522) of the same molecule?
Answer: 44.3 µM (inactive)

Question: And the GI50 (EKVX)?
Answer: > 100 µM (inactive)

Question: What about the GI50 (MDA-N) of the same molecule?
Answer: > 100 µM (inactive)

Question: And the GI50 (SF-295)?
Answer: > 100 µM (inactive)

Question: What about the GI50 (MCF7) of the same molecule?
Answer: 44.3 µM (inactive)

Question: What about the GI50 (HCT-15) of the same molecule?
Answer: 37.8 µM

Question: `COC1=C(C)C(=O)c2c(c(COC(N)=O)c3n2CC2C3N2C)C1=O` (stereo not given) was tested. Which GI50 (K562) did it give?
Answer: 0.051 µM (active)

Question: And the GI50 (M14)?
Answer: < 0.01 µM (active)

Question: What about the GI50 (UO-31) of the same molecule?
Answer: < 0.0145 µM (active)

Question: What about the GI50 (MOLT-4) of the same molecule?
Answer: < 0.0147 µM (active)

Question: And the GI50 (RXF 393)?
Answer: < 0.0331 µM (active)

Question: And the GI50 (MDA-MB-435)?
Answer: 0.0189 µM (active)

Question: And the GI50 (LOX IMVI)?
Answer: < 0.01 µM (active)

Question: And the GI50 (NCI-H226)?
Answer: 0.0766 µM (active)

Question: What about the GI50 (U-251) of the same molecule?
Answer: < 0.01 µM (active)

Question: And the GI50 (NCI/ADR-RES)?
Answer: < 0.025 µM (active)

Question: And the GI50 (RPMI-8226)?
Answer: < 0.0154 µM (active)

Question: And the GI50 (PC-3)?
Answer: 0.0555 µM (active)

Question: And the GI50 (OVCAR-3)?
Answer: 0.0256 µM (active)

Question: What about the GI50 (COLO 205) of the same molecule?
Answer: < 0.0157 µM (active)

Question: And the GI50 (NCI-H522)?
Answer: < 0.0124 µM (active)

Question: And the GI50 (EKVX)?
Answer: 0.14 µM (active)

Question: What about the GI50 (MDA-N) of the same molecule?
Answer: 0.019 µM (active)

Question: What about the GI50 (SF-295) of the same molecule?
Answer: < 0.01 µM (active)

Question: And the GI50 (MCF7)?
Answer: < 0.01 µM (active)

Question: And the GI50 (HCT-15)?
Answer: < 0.0118 µM

Question: Which results are given for `CC1=NN(c2nc(N)nc(/C(C#N)=C\c3ccc([N+](=O)[O-])s3)n2)C(C)(C)C1`?
Answer: GI50 (K562): < 0.0178 µM (active); GI50 (M14): 0.298 µM (active); GI50 (UO-31): 0.167 µM (active); GI50 (MOLT-4): 0.138 µM (active); GI50 (RXF 393): 0.236 µM (active); GI50 (MDA-MB-435): 0.233 µM (active); GI50 (LOX IMVI): 0.157 µM (active); GI50 (NCI-H226): 2.39 µM (inactive); GI50 (U-251): 0.104 µM (active); GI50 (NCI/ADR-RES): 1.18 µM (inactive); GI50 (RPMI-8226): 0.0218 µM (active); GI50 (PC-3): 0.165 µM (active); GI50 (OVCAR-3): 0.124 µM (active); GI50 (COLO 205): 0.339 µM (active); GI50 (NCI-H522): 0.101 µM (active); GI50 (EKVX): 0.817 µM (active); GI50 (MDA-N): 0.34 µM (active); GI50 (SF-295): 2.96 µM (inactive); GI50 (MCF7): 0.142 µM (active); GI50 (HCT-15): 0.108 µM

Question: With `c1ccc2c(c1)NC1(N3CCCCC3)CCCCC21` (stereo not given) as the molecule, how does the GI50 (K562) read?
Answer: 38.8 µM (inactive)

Question: And the GI50 (M14)?
Answer: 55.3 µM (inactive)

Question: And the GI50 (UO-31)?
Answer: 51.9 µM (inactive)

Question: What about the GI50 (MOLT-4) of the same molecule?
Answer: 25.9 µM (inactive)

Question: And the GI50 (RXF 393)?
Answer: 9.16 µM (inactive)

Question: And the GI50 (MDA-MB-435)?
Answer: 35.2 µM (inactive)

Question: What about the GI50 (LOX IMVI) of the same molecule?
Answer: 38.4 µM (inactive)

Question: What about the GI50 (NCI-H226) of the same molecule?
Answer: 52.4 µM (inactive)

Question: What about the GI50 (U-251) of the same molecule?
Answer: 41.2 µM (inactive)

Question: What about the GI50 (NCI/ADR-RES) of the same molecule?
Answer: 91.8 µM (inactive)

Question: And the GI50 (RPMI-8226)?
Answer: 39.1 µM (inactive)

Question: What about the GI50 (PC-3) of the same molecule?
Answer: 39.4 µM (inactive)

Question: And the GI50 (OVCAR-3)?
Answer: 41.7 µM (inactive)

Question: And the GI50 (COLO 205)?
Answer: 62.1 µM (inactive)

Question: And the GI50 (NCI-H522)?
Answer: 35.8 µM (inactive)

Question: What about the GI50 (EKVX) of the same molecule?
Answer: 25.5 µM (inactive)

Question: And the GI50 (MDA-N)?
Answer: 28.1 µM (inactive)

Question: And the GI50 (SF-295)?
Answer: 45.4 µM (inactive)

Question: What about the GI50 (MCF7) of the same molecule?
Answer: 36.1 µM (inactive)

Question: What about the GI50 (HCT-15) of the same molecule?
Answer: 44 µM

Question: Which GI50 (K562) does the source give for `Nc1ccn(C2OC(CO)C(O)C2(F)F)c(=O)n1` (stereo not given) here?
Answer: 0.325 µM (active)

Question: What about the GI50 (M14) of the same molecule?
Answer: 0.0313 µM (active)

Question: What about the GI50 (UO-31) of the same molecule?
Answer: 0.0658 µM (active)

Question: What about the GI50 (MOLT-4) of the same molecule?
Answer: 0.091 µM (active)

Question: And the GI50 (RXF 393)?
Answer: 0.214 µM (active)

Question: And the GI50 (MDA-MB-435)?
Answer: 0.384 µM (active)

Question: What about the GI50 (LOX IMVI) of the same molecule?
Answer: 0.157 µM (active)

Question: And the GI50 (NCI-H226)?
Answer: 0.706 µM (active)

Question: What about the GI50 (U-251) of the same molecule?
Answer: 0.162 µM (active)

Question: What about the GI50 (NCI/ADR-RES) of the same molecule?
Answer: 0.0755 µM (active)

Question: And the GI50 (RPMI-8226)?
Answer: 0.281 µM (active)

Question: And the GI50 (PC-3)?
Answer: 0.885 µM (active)

Question: What about the GI50 (OVCAR-3) of the same molecule?
Answer: 1.88 µM (inactive)

Question: And the GI50 (COLO 205)?
Answer: 0.82 µM (active)

Question: And the GI50 (NCI-H522)?
Answer: 0.318 µM (active)

Question: What about the GI50 (EKVX) of the same molecule?
Answer: 0.973 µM (active)

Question: What about the GI50 (MDA-N) of the same molecule?
Answer: 0.237 µM (active)

Question: And the GI50 (SF-295)?
Answer: 0.254 µM (active)

Question: What about the GI50 (MCF7) of the same molecule?
Answer: 0.0847 µM (active)

Question: What about the GI50 (HCT-15) of the same molecule?
Answer: 0.735 µM

Question: With `Cc1cn(C2CCN(CC3COC(C)(C)O3)O2)c(=O)[nH]c1=O` (stereo not given) as the molecule, how does the GI50 (K562) read?
Answer: > 100 µM (inactive)

Question: And the GI50 (M14)?
Answer: > 100 µM (inactive)

Question: And the GI50 (UO-31)?
Answer: > 100 µM (inactive)

Question: What about the GI50 (MOLT-4) of the same molecule?
Answer: > 100 µM (inactive)

Question: What about the GI50 (RXF 393) of the same molecule?
Answer: > 100 µM (inactive)

Question: And the GI50 (MDA-MB-435)?
Answer: > 100 µM (inactive)

Question: And the GI50 (LOX IMVI)?
Answer: > 100 µM (inactive)

Question: And the GI50 (NCI-H226)?
Answer: > 100 µM (inactive)

Question: And the GI50 (U-251)?
Answer: > 100 µM (inactive)

Question: What about the GI50 (NCI/ADR-RES) of the same molecule?
Answer: > 100 µM (inactive)

Question: And the GI50 (RPMI-8226)?
Answer: > 100 µM (inactive)

Question: What about the GI50 (PC-3) of the same molecule?
Answer: > 100 µM (inactive)

Question: And the GI50 (OVCAR-3)?
Answer: > 100 µM (inactive)

Question: What about the GI50 (COLO 205) of the same molecule?
Answer: > 100 µM (inactive)

Question: And the GI50 (NCI-H522)?
Answer: > 100 µM (inactive)

Question: What about the GI50 (EKVX) of the same molecule?
Answer: > 100 µM (inactive)

Question: And the GI50 (MDA-N)?
Answer: > 100 µM (inactive)

Question: And the GI50 (SF-295)?
Answer: > 100 µM (inactive)

Question: And the GI50 (MCF7)?
Answer: > 100 µM (inactive)

Question: What about the GI50 (HCT-15) of the same molecule?
Answer: > 100 µM

Question: `COc1ccc(NC(C)c2ccncc2)cc1` (stereo not given) was tested. Which GI50 (K562) did it give?
Answer: > 100 µM (inactive)

Question: What about the GI50 (M14) of the same molecule?
Answer: > 100 µM (inactive)

Question: What about the GI50 (UO-31) of the same molecule?
Answer: > 100 µM (inactive)

Question: And the GI50 (MOLT-4)?
Answer: > 100 µM (inactive)

Question: What about the GI50 (RXF 393) of the same molecule?
Answer: > 100 µM (inactive)

Question: And the GI50 (MDA-MB-435)?
Answer: > 100 µM (inactive)

Question: And the GI50 (LOX IMVI)?
Answer: > 100 µM (inactive)

Question: What about the GI50 (NCI-H226) of the same molecule?
Answer: > 100 µM (inactive)

Question: And the GI50 (U-251)?
Answer: > 100 µM (inactive)

Question: What about the GI50 (NCI/ADR-RES) of the same molecule?
Answer: > 100 µM (inactive)

Question: What about the GI50 (RPMI-8226) of the same molecule?
Answer: > 100 µM (inactive)

Question: What about the GI50 (PC-3) of the same molecule?
Answer: > 100 µM (inactive)

Question: What about the GI50 (OVCAR-3) of the same molecule?
Answer: > 100 µM (inactive)

Question: What about the GI50 (COLO 205) of the same molecule?
Answer: > 100 µM (inactive)

Question: And the GI50 (NCI-H522)?
Answer: > 100 µM (inactive)

Question: What about the GI50 (EKVX) of the same molecule?
Answer: > 100 µM (inactive)

Question: What about the GI50 (MDA-N) of the same molecule?
Answer: > 100 µM (inactive)

Question: And the GI50 (SF-295)?
Answer: > 100 µM (inactive)

Question: And the GI50 (MCF7)?
Answer: > 100 µM (inactive)

Question: And the GI50 (HCT-15)?
Answer: > 100 µM
